System: adult patients with uncontrolled gout
Assay: Health Assessment Questionnaire (HAQ-DI, HAQ pain, HAQ health), open-label study
Type: in vivo, human
Design: key to HAQ-Health, Observed, Median / HAQ-Health, Change from Baseline, Median: 0-100 scale; 0 = very well, 100 = very poor health; key to HAQ-DI, Observed, Median / HAQ-DI, Change from Baseline, Median: HAQ-DI scale 0-3; 0 = no difficulty, 3 = unable to do
Settings: mITT Population
Description: Quality-of-Life Assessment: The HAQ was administered at the Screening and Week −4 or week −6 (prior to the first dose of MTX) Visits during the MTX Run-in Period for the open-label and randomized studies, respectively; prior to pegloticase infusion at the Day 1 and Weeks 14, 24 and 36 Visits or at the Day 1 and weeks 6, 14, 20, 24, 30, 36, and 44 visits during the Pegloticase+IMM Period for the open-label and randomized studies, respectively; at the End of Pegloticase Infusions Visit (if applicable), the Week 52/End of Study/Early Termination Visit and the Post Treatment Periods 3 and 6 Month Follow-up Visits (open-label study). The HAQ-DI is a self-report functional status instrument that can be filled out by a subject in less than 5 minutes and requires 1 minute to score. The index measures disability over the past week by asking a total of 20 questions covering 8 domains of function: dressing and grooming, arising, eating, walking, hygiene, reach, grip, and usual activities. There are at least 2 questions in each domain and the 8 domains represent a comprehensive set of functional activities. The HAQ-DI is calculated by scoring the answer to each question in the HAQ from 0 to 3, with 0 representing the ability to do without any difficulty, and 3 representing inability to do. Any activity that requires assistance from another individual or requires the use of an assistive device raises a 0 or 1 score to a 2. The highest score for each of the 8 domains is summed (range from 0 to 24) and divided by 8 to yield, on a scale with 25 possible values, a Functional Disability Index with a range from 0 to 3. The disability index is based on the number of domains answered and is computed only if the subject completes answers to at least 6 domains. The HAQ pain scale asks subjects to record how much pain they have had in the past week on a scale of 0 to 100, where zero represents “no pain” and 100 represents “severe pain”. The HAQ health scale is a measure of overall health. Subjects are asked to rate how well they are doing on a score of 0 to 100, where zero represents “very well” and 100 represents “very poor” health.

[1] = Early Termination Visit, Methotrexate Baseline
[2] = Early Termination Visit, Pegloticase Baseline
[3] = End of Pegloticase Infusions Visit, Methotrexate Baseline
[4] = End of Pegloticase Infusions Visit, Pegloticase Baseline

pegloticase
HAQ-DI, Change from Baseline, Mean (SD) (Day 1, Methotrexate Baseline): 0.1 (0.27)
HAQ-DI, Change from Baseline, Median (Day 1, Methotrexate Baseline): 0.0
HAQ-DI, Observed, Mean (SD) (Day 1, Methotrexate Baseline): 0.8 (0.77)
HAQ-DI, Observed, Median (Day 1, Methotrexate Baseline): 0.5
HAQ-Health, Change from Baseline, Mean (SD) (Day 1, Methotrexate Baseline): −8.8 (38.29)
HAQ-Health, Change from Baseline, Median (Day 1, Methotrexate Baseline): 10.0
HAQ-Health, Observed, Mean (SD) (Day 1, Methotrexate Baseline): 37.8 (27.06)
HAQ-Health, Observed, Median (Day 1, Methotrexate Baseline): 25.0
HAQ-Pain, Change from Baseline, Mean (SD) (Day 1, Methotrexate Baseline): 2.3 (19.93)
HAQ-Pain, Change from Baseline, Median (Day 1, Methotrexate Baseline): 0.0
HAQ-Pain, Observed, Mean (SD) (Day 1, Methotrexate Baseline): 42.5 (22.24)
HAQ-Pain, Observed, Median (Day 1, Methotrexate Baseline): 40.0
HAQ-DI, Change from Baseline, Mean (SD) [1]: 0.2 (0.90)
HAQ-DI, Change from Baseline, Median [1]: −0.3
HAQ-DI, Observed, Mean (SD) [1]: 0.7 (0.51)
HAQ-DI, Observed, Median [1]: 0.6
HAQ-Health, Change from Baseline, Mean (SD) [1]: −0.7 (16.77)
HAQ-Health, Change from Baseline, Median [1]: 8.0
HAQ-Health, Observed, Mean (SD) [1]: 28.3 (40.72)
HAQ-Health, Observed, Median [1]: 10.0
HAQ-Pain, Change from Baseline, Mean (SD) [1]: 19.0 (36.51)
HAQ-Pain, Change from Baseline, Median [1]: 7.0
HAQ-Pain, Observed, Mean (SD) [1]: 46.7 (40.41)
HAQ-Pain, Observed, Median [1]: 40.0
HAQ-DI, Change from Baseline, Mean (SD) [2]: 0.2 (0.56)
HAQ-DI, Change from Baseline, Median [2]: 0.1
HAQ-DI, Observed, Mean (SD) [2]: 0.7 (0.51)
HAQ-DI, Observed, Median [2]: 0.6
HAQ-Health, Change from Baseline, Mean (SD) [2]: −11.7 (62.52)
HAQ-Health, Change from Baseline, Median [2]: −10.0
HAQ-Health, Observed, Mean (SD) [2]: 28.3 (40.72)
HAQ-Health, Observed, Median [2]: 10.0
HAQ-Pain, Change from Baseline, Mean (SD) [2]: 0.0 (45.83)
HAQ-Pain, Change from Baseline, Median [2]: −10.0
HAQ-Pain, Observed, Mean (SD) [2]: 46.7 (40.41)
HAQ-Pain, Observed, Median [2]: 40.0
HAQ-DI, Change from Baseline, Mean (SD) [3]: −0.1 (0.35)
HAQ-DI, Change from Baseline, Median [3]: −0.1
HAQ-DI, Observed, Mean (SD) [3]: 0.1 (0.18)
HAQ-DI, Observed, Median [3]: 0.1
HAQ-Health, Change from Baseline, Mean (SD) [3]: −80.0 (0.00)
HAQ-Health, Change from Baseline, Median [3]: −80.0
HAQ-Health, Observed, Mean (SD) [3]: 0.0 (0.00)
HAQ-Health, Observed, Median [3]: 0.0
HAQ-Pain, Change from Baseline, Mean (SD) [3]: 2.5 (74.25)
HAQ-Pain, Change from Baseline, Median [3]: 2.5
HAQ-Pain, Observed, Mean (SD) [3]: 40.0 (56.57)
HAQ-Pain, Observed, Median [3]: 40.0
HAQ-DI, Change from Baseline, Mean (SD) [4]: −0.1 (0.35)
HAQ-DI, Change from Baseline, Median [4]: −0.1
HAQ-DI, Observed, Mean (SD) [4]: 0.1 (0.18)
HAQ-DI, Observed, Median [4]: 0.1
HAQ-Health, Change from Baseline, Mean (SD) [4]: −45.0 (49.50)
HAQ-Health, Change from Baseline, Median [4]: −45.0
HAQ-Health, Observed, Mean (SD) [4]: 0.0 (0.00)
HAQ-Health, Observed, Median [4]: 0.0
HAQ-Pain, Change from Baseline, Mean (SD) [4]: 2.5 (74.25)
HAQ-Pain, Change from Baseline, Median [4]: 2.5
HAQ-Pain, Observed, Mean (SD) [4]: 40.0 (56.57)
HAQ-Pain, Observed, Median [4]: 40.0
HAQ-DI, Change from Baseline, Mean (SD) (Week 14, Methotrexate Baseline): −0.2 (0.77)
HAQ-DI, Change from Baseline, Median (Week 14, Methotrexate Baseline): 0.0
HAQ-DI, Observed, Mean (SD) (Week 14, Methotrexate Baseline): 0.5 (0.41)
HAQ-DI, Observed, Median (Week 14, Methotrexate Baseline): 0.5
HAQ-Health, Change from Baseline, Mean (SD) (Week 14, Methotrexate Baseline): −12.5 (36.79)
HAQ-Health, Change from Baseline, Median (Week 14, Methotrexate Baseline): −5.0
HAQ-Health, Observed, Mean (SD) (Week 14, Methotrexate Baseline): 36.6 (33.87)
HAQ-Health, Observed, Median (Week 14, Methotrexate Baseline): 16.5
HAQ-Pain, Change from Baseline, Mean (SD) (Week 14, Methotrexate Baseline): −13.9 (30.48)
HAQ-Pain, Change from Baseline, Median (Week 14, Methotrexate Baseline): −12.5
HAQ-Pain, Observed, Mean (SD) (Week 14, Methotrexate Baseline): 27.1 (26.25)
HAQ-Pain, Observed, Median (Week 14, Methotrexate Baseline): 15.0
HAQ-DI, Change from Baseline, Mean (SD) (Week 14, Pegloticase Baseline): −0.3 (0.80)
HAQ-DI, Change from Baseline, Median (Week 14, Pegloticase Baseline): 0.0
HAQ-DI, Observed, Mean (SD) (Week 14, Pegloticase Baseline): 0.5 (0.41)
HAQ-DI, Observed, Median (Week 14, Pegloticase Baseline): 0.5
HAQ-Health, Change from Baseline, Mean (SD) (Week 14, Pegloticase Baseline): −4.3 (43.82)
HAQ-Health, Change from Baseline, Median (Week 14, Pegloticase Baseline): −1.0
